Values belong to the molecule of their own block, whether it stands above or below them. Numbered stars: 1 amine (or outer) side, 2 acyl side, 3 side chain; on linkers, the order of the positions; unused ones are H or OH. Square brackets hold non-standard residues; d marks the D form. Peptide text beside a SMILES is read from it. ξ: configuration not given here. Oic(3aξ,7aξ) = O=C(O)[C@@H]1CC2CCCCC2N1; X2 = O=C([C@H]1c2ccccc2CCN1[*:1])[*:2]; X1 = O=C(CCCCCCCCCCCCN[*:1])[*:2]
Columns and labels:
B1 bradykinin receptor = target: T1, B1 bradykinin receptor (Rattus norvegicus, UniProt P97583); assay: Compound was evaluated for agonist activity against B1 receptor in rat ileum longitudinal smooth muscle; assay type: functional, tissue-based
T1 sequence (P97583 whole entry): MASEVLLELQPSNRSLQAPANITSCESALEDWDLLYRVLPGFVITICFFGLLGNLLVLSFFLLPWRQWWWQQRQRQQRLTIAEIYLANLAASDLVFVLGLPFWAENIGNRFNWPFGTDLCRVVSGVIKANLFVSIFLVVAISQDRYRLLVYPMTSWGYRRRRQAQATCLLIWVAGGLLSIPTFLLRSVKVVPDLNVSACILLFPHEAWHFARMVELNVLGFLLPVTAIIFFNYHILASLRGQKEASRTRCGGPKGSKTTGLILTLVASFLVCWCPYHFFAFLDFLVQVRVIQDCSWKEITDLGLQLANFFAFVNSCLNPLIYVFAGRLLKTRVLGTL

B2 bradykinin receptor [1] = target: T2, B2 bradykinin receptor (Homo sapiens, UniProt P30411); assay: Compound was evaluated for inhibitory activity against [3H]BK in membrane preparations from a stable cell line that expresses the human B2 receptor
T2 sequence (P30411 whole entry): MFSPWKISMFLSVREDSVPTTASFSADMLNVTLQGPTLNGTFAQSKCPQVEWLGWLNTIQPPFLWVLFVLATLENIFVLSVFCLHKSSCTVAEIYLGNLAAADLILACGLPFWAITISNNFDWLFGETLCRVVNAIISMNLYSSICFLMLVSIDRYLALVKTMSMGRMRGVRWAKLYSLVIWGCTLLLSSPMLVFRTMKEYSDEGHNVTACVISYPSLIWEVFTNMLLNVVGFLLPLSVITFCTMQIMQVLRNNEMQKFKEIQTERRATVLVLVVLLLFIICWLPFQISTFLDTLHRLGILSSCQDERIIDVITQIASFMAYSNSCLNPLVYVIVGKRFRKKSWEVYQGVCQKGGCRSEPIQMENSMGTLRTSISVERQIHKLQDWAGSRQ

B2 bradykinin receptor [2] = target: T3, B2 bradykinin receptor (Cavia porcellus, UniProt O70526); assay: Functional antagonism against BK-induced contractions in the classical guinea pig ileum B2 binding assay; assay type: tissue-based; conditions: read-out: pA2 (converted)
T3 sequence (O70526 whole entry): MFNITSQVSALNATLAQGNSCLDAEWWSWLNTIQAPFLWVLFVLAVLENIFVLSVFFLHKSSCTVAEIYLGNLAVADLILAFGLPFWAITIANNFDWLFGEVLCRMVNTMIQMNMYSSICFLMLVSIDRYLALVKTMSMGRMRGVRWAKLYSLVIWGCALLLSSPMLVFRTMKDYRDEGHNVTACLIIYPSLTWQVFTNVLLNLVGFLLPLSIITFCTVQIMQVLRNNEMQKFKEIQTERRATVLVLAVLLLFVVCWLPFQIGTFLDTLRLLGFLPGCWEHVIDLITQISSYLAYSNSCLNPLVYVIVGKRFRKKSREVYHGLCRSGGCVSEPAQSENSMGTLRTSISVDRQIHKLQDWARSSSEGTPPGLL

B2 bradykinin receptor [3] = target: T3, B2 bradykinin receptor; assay: Compound was evaluated for inhibitory activity against [3H]BK in the classical guinea pig ileum B2 binding assay; assay type: tissue-based

EC50 (B1 bradykinin receptor): 85 nM
Compound: NCCCC[C@H](N)C(=O)N[C@@H](CCCN=C(N)N)C(=O)N1CCC[C@H]1C(=O)N1CCC[C@H]1C(=O)NCC(=O)N[C@@H](Cc1ccccc1)C(=O)N[C@@H](CO)C(=O)N1CCC[C@H]1C(=O)N[C@@H](Cc1ccccc1)C(=O)O

Ki (B2 bradykinin receptor [1]): 44 nM
Compound: NC(N)=NCCC[C@H](NC(=O)[C@@H]1CC2CCCCC2N1C(=O)[C@H]1c2ccccc2CCN1C(=O)[C@H](CO)NC(=O)CCCCCCCCCCCCNC(=O)[C@H](CCCN=C(N)N)NC(=O)[C@@H](N)CCCN=C(N)N)C(=O)O (stereo not given in full) (H-RR[X1]S[X2][Oic(3aξ,7aξ)]R-OH)

EC50 (B1 bradykinin receptor): 980 nM
Compound: NCCCC[C@H](N)C(=O)N[C@@H](CCCN=C(N)N)C(=O)NCCCCCCCCCCCCC(=O)N[C@@H](CO)C(=O)N1CCC[C@H]1C(=O)N[C@@H](Cc1ccccc1)C(=O)O (H-KR[X1]SPF-OH)

Kb (B2 bradykinin receptor [2]): 3.16 µM
Ki (B2 bradykinin receptor [3]): 360 nM
Compound: N=C(N)NCCC[C@H](NC(=O)[C@H](N)CCCN=C(N)N)C(=O)NCCCCCCCCCCCC(=O)N[C@@H](CO)C(=O)N1CCc2ccccc2[C@@H]1C(=O)N1C2CCCCC2C[C@H]1C(=O)N[C@@H](CCCN=C(N)N)C(=O)O (stereo not given in full)

Source: ChEMBL document CHEMBL1130580, “Synthesis and biological activity of new bradykinin pseudopeptide B1 receptor agonists containing alkylic spacers” (Bioorg Med Chem Lett, 1997)
